What was measured:
SK-MEL-2 = test: Growth inhibition of human SK-MEL-2 cells assessed as cell growth at 10 uM incubated for 48 hrs by sulforhodamine B assay relative to control; type: functional; details: SK-MEL-2, 48 h, read-out: Activity
HT-29 [1] = test: Growth inhibition of human HT-29 cells incubated for 48 hrs by sulforhodamine B assay; type: functional, cell-based; details: HT-29, 48 h
MDA-MB-435 [2] = test: Growth inhibition of human MDA-MB-435 cells incubated for 48 hrs by sulforhodamine B assay; type: functional, cell-based; details: MDA-MB-435, 48 h
IGROV-1 [3] = test: Growth inhibition of human IGROV1 cells incubated for 48 hrs by sulforhodamine B assay; type: functional, cell-based; details: IGROV-1, 48 h
OVCAR-3 [4] = test: Growth inhibition of human OVCAR3 cells incubated for 48 hrs by sulforhodamine B assay; type: functional, cell-based; details: OVCAR-3, 48 h
SK-OV-3 = test: Growth inhibition of human SKOV3 cells incubated for 48 hrs by sulforhodamine B assay; type: functional, cell-based; details: SK-OV-3, 48 h
RXF 393 = test: Growth inhibition of human RXF393 cells incubated for 48 hrs by sulforhodamine B assay; type: functional, cell-based; details: RXF 393, 48 h
HL-60(TB) = test: Growth inhibition of human HL-60(TB) cells assessed as cell growth at 0.01 uM incubated for 48 hrs by sulforhodamine B assay relative to control; type: functional; details: HL-60, 48 h, read-out: Activity
NCI-H226 = test: Growth inhibition of human NCI-H226 cells assessed as cell growth at 0.01 uM incubated for 48 hrs by sulforhodamine B assay relative to control; type: functional; details: NCI-H226, 48 h, read-out: Activity
HCT-15 = test: Growth inhibition of human HCT15 cells assessed as cell growth at 0.01 uM incubated for 48 hrs by sulforhodamine B assay relative to control; type: functional; details: HCT-15, 48 h, read-out: Activity
KM12 = test: Growth inhibition of human KM12 cells assessed as cell growth at 0.01 uM incubated for 48 hrs by sulforhodamine B assay relative to control; type: functional; details: KM12, 48 h, read-out: Activity
IGROV-1 [5] = test: Growth inhibition of human IGROV1 cells assessed as cell growth at 0.01 uM incubated for 48 hrs by sulforhodamine B assay relative to control; type: functional; details: IGROV-1, 48 h, read-out: Activity
A498 = test: Growth inhibition of human A498 cells assessed as cell growth at 0.01 uM incubated for 48 hrs by sulforhodamine B assay relative to control; type: functional; details: A498, 48 h, read-out: Activity
DU-145 = test: Growth inhibition of human DU145 cells assessed as cell growth at 0.01 uM incubated for 48 hrs by sulforhodamine B assay relative to control; type: functional; details: DU-145, 48 h, read-out: Activity
Hs-578T = test: Growth inhibition of human Hs578T cells assessed as cell growth at 0.01 uM incubated for 48 hrs by sulforhodamine B assay relative to control; type: functional; details: read-out: Activity
MDA-MB-468 = test: Growth inhibition of human MDA-MB-468 cells assessed as cell growth at 0.01 uM incubated for 48 hrs by sulforhodamine B assay relative to control; type: functional; details: MDA-MB-468, 48 h, read-out: Activity
U-251 = test: Growth inhibition of human U251 cells assessed as cell growth at 0.1 uM incubated for 48 hrs by sulforhodamine B assay relative to control; type: functional; details: U-251, 48 h, read-out: Activity
MDA-MB-435 [6] = test: Growth inhibition of human MDA-MB-435 cells assessed as cell growth at 0.1 uM incubated for 48 hrs by sulforhodamine B assay relative to control; type: functional; details: MDA-MB-435, 48 h, read-out: Activity
BT-549 = test: Growth inhibition of human BT549 cells assessed as cell growth at 0.1 uM incubated for 48 hrs by sulforhodamine B assay relative to control; type: functional; details: BT-549, 48 h, read-out: Activity
HCT-116 = test: Growth inhibition of human HCT116 cells assessed as cell growth at 1 uM incubated for 48 hrs by sulforhodamine B assay relative to control; type: functional; details: HCT-116, 48 h, read-out: Activity
SK-MEL-28 = test: Growth inhibition of human SK-MEL-28 cells assessed as cell growth at 1 uM incubated for 48 hrs by sulforhodamine B assay relative to control; type: functional; details: SK-MEL-28, 48 h, read-out: Activity
IGROV-1 [7] = test: Growth inhibition of human IGROV1 cells assessed as cell growth at 1 uM incubated for 48 hrs by sulforhodamine B assay relative to control; type: functional; details: IGROV-1, 48 h, read-out: Activity
OVCAR-3 [8] = test: Growth inhibition of human OVCAR3 cells assessed as cell growth at 1 uM incubated for 48 hrs by sulforhodamine B assay relative to control; type: functional; details: OVCAR-3, 48 h, read-out: Activity
CCRF-CEM = test: Growth inhibition of human CCRF-CEM cells assessed as cell growth at 100 uM incubated for 48 hrs by sulforhodamine B assay relative to control; type: functional; details: read-out: Activity
HOP-62 = test: Growth inhibition of human HOP62 cells assessed as cell growth at 100 uM incubated for 48 hrs by sulforhodamine B assay relative to control; type: functional; details: HOP-62, 48 h, read-out: Activity
HT-29 [9] = test: Growth inhibition of human HT-29 cells assessed as cell growth at 100 uM incubated for 48 hrs by sulforhodamine B assay relative to control; type: functional; details: HT-29, 48 h, read-out: Activity
UACC-257 = test: Growth inhibition of human UACC257 cells assessed as cell growth at 100 uM incubated for 48 hrs by sulforhodamine B assay relative to control; type: functional; details: UACC-257, 48 h, read-out: Activity
786-0 = test: Growth inhibition of human 786-0 cells assessed as cell growth at 100 uM incubated for 48 hrs by sulforhodamine B assay relative to control; type: functional; details: 786-0, 48 h, read-out: Activity
T47D = test: Growth inhibition of human T47D cells assessed as cell growth at 100 uM incubated for 48 hrs by sulforhodamine B assay relative to control; type: functional; details: read-out: Activity
[10] = read-out: LC50 (the source's name)
[11] = read-out: pLC50 (the source's name) (converted)

COc1cc(Cl)cc(-c2nn(-c3cccc(NC(=O)c4cccc(C(F)(F)F)c4)c3)cc2-c2ccncc2)c1
growth at 10 µM (SK-MEL-2): 56.4%
GI50 (HT-29 [1]; read-out: GI50): 3.37 µM
CC50 (HT-29 [1]; [10]): > 100 µM
TGI (HT-29 [1]; read-out: TGI): > 100 µM
GI50 (HT-29 [1]; read-out: pGI50 (converted)): 3.39 µM
CC50 (HT-29 [1]; [11]): > 100 µM
TGI (HT-29 [1]; read-out: pTGI (converted)): > 100 µM
GI50 (MDA-MB-435 [2]; read-out: GI50): > 100 µM
LC50 (MDA-MB-435 [2]; read-out: LC50): > 100 µM
TGI (MDA-MB-435 [2]; read-out: TGI): > 100 µM
GI50 (MDA-MB-435 [2]; read-out: pGI50 (converted)): > 100 µM
LC50 (MDA-MB-435 [2]; read-out: pLC50 (converted)): > 100 µM
TGI (MDA-MB-435 [2]; read-out: pTGI (converted)): > 100 µM
GI50 (IGROV-1 [3]; read-out: GI50): > 100 µM
CC50 (IGROV-1 [3]; [10]): > 100 µM
TGI (IGROV-1 [3]; read-out: TGI): > 100 µM
GI50 (IGROV-1 [3]; read-out: pGI50 (converted)): > 100 µM
CC50 (IGROV-1 [3]; [11]): > 100 µM
TGI (IGROV-1 [3]; read-out: pTGI (converted)): > 100 µM
IC50 (OVCAR-3 [4]): 7.69 µM
GI50 (OVCAR-3 [4]; read-out: GI50): 7.59 µM
CC50 (OVCAR-3 [4]; [10]): > 100 µM
TGI (OVCAR-3 [4]; read-out: TGI): > 100 µM
GI50 (OVCAR-3 [4]; read-out: pGI50 (converted)): 7.76 µM
CC50 (OVCAR-3 [4]; [11]): > 100 µM
TGI (OVCAR-3 [4]; read-out: pTGI (converted)): > 100 µM
GI50 (SK-OV-3; read-out: GI50): > 100 µM
CC50 (SK-OV-3; [10]): > 100 µM
TGI (SK-OV-3; read-out: TGI): > 100 µM
GI50 (SK-OV-3; read-out: pGI50 (converted)): > 100 µM
CC50 (SK-OV-3; [11]): > 100 µM
TGI (SK-OV-3; read-out: pTGI (converted)): > 100 µM
LC50 (RXF 393): > 100 µM
GI50 (RXF 393; read-out: GI50): 1.57 µM
TGI (RXF 393; read-out: TGI): > 100 µM
GI50 (RXF 393; read-out: pGI50 (converted)): 1.86 µM
TGI (RXF 393; read-out: pTGI (converted)): > 100 µM
growth at 0.01 µM (HL-60(TB)): 59%
growth at 0.01 µM (NCI-H226): 95%
growth at 0.01 µM (HCT-15): 56%
growth at 0.01 µM (KM12): 110%
growth at 0.01 µM (IGROV-1 [5]): 94%
growth at 0.01 µM (A498): 58%
growth at 0.01 µM (DU-145): 109%
growth at 0.01 µM (Hs-578T): 97%
growth at 0.01 µM (MDA-MB-468): 91%
growth at 0.1 µM (U-251): 91%
growth at 0.1 µM (MDA-MB-435 [6]): 95%
growth at 0.1 µM (BT-549): 94%
growth at 1 µM (HCT-116): 71%
growth at 1 µM (SK-MEL-28): 92%
growth at 1 µM (IGROV-1 [7]): 94%
growth at 1 µM (OVCAR-3 [8]): 102%
growth at 100 µM (CCRF-CEM): 32%
growth at 100 µM (HOP-62): 83%
growth at 100 µM (HT-29 [9]): 34%
growth at 100 µM (UACC-257): 52%
growth at 100 µM (786-0): 44%
growth at 100 µM (T47D): 15%

O=C(Nc1cccc(-n2cc(-c3ccncc3)c(-c3cc(O)cc(Cl)c3)n2)c1)Nc1ccc(Cl)c(Cl)c1
GI50 (HT-29 [1]; read-out: GI50): 1.92 µM
CC50 (HT-29 [1]; [10]): 7.9 µM
TGI (HT-29 [1]; read-out: TGI): 39 µM
GI50 (HT-29 [1]; read-out: pGI50 (converted)): 1.91 µM
CC50 (HT-29 [1]; [11]): 7.94 µM
TGI (HT-29 [1]; read-out: pTGI (converted)): 3.89 µM
GI50 (MDA-MB-435 [2]; read-out: GI50): 1.5 µM
TGI (MDA-MB-435 [2]; read-out: TGI): 35.8 µM
GI50 (MDA-MB-435 [2]; read-out: pGI50 (converted)): 1.58 µM
TGI (MDA-MB-435 [2]; read-out: pTGI (converted)): 3.55 µM
GI50 (IGROV-1 [3]; read-out: GI50): 2.56 µM
CC50 (IGROV-1 [3]; [10]): > 100 µM
TGI (IGROV-1 [3]; read-out: TGI): 92.3 µM
GI50 (IGROV-1 [3]; read-out: pGI50 (converted)): 2.88 µM
CC50 (IGROV-1 [3]; [11]): > 100 µM
TGI (IGROV-1 [3]; read-out: pTGI (converted)): 9.33 µM
IC50 (OVCAR-3 [4]): 1.96 µM
GI50 (OVCAR-3 [4]; read-out: GI50): 1.96 µM
CC50 (OVCAR-3 [4]; [10]): > 100 µM
TGI (OVCAR-3 [4]; read-out: TGI): 50.5 µM
GI50 (OVCAR-3 [4]; read-out: pGI50 (converted)): 1.95 µM
CC50 (OVCAR-3 [4]; [11]): > 100 µM
TGI (OVCAR-3 [4]; read-out: pTGI (converted)): 5.01 µM
GI50 (SK-OV-3; read-out: GI50): 3.42 µM
CC50 (SK-OV-3; [10]): > 100 µM
TGI (SK-OV-3; read-out: TGI): 94.3 µM
GI50 (SK-OV-3; read-out: pGI50 (converted)): 3.39 µM
CC50 (SK-OV-3; [11]): > 100 µM
TGI (SK-OV-3; read-out: pTGI (converted)): 9.33 µM
LC50 (RXF 393): 8.13 µM
GI50 (RXF 393; read-out: GI50): 0.556 µM
TGI (RXF 393; read-out: TGI): 24.6 µM
GI50 (RXF 393; read-out: pGI50 (converted)): 0.55 µM
TGI (RXF 393; read-out: pTGI (converted)): 2.45 µM
growth at 0.01 µM (HL-60(TB)): 93%
growth at 0.01 µM (NCI-H226): 94%
growth at 0.01 µM (HCT-15): 59%
growth at 0.01 µM (KM12): 102%
growth at 0.01 µM (IGROV-1 [5]): 98%
growth at 0.01 µM (A498): 57%
growth at 0.01 µM (DU-145): 108%
growth at 0.01 µM (Hs-578T): 98%
growth at 0.01 µM (MDA-MB-468): 92%
growth at 0.1 µM (U-251): 93%
growth at 0.1 µM (MDA-MB-435 [6]): 93%
growth at 0.1 µM (BT-549): 93%
growth at 1 µM (HCT-116): 82%
growth at 1 µM (SK-MEL-28): 90%
growth at 1 µM (IGROV-1 [7]): 95%
growth at 1 µM (OVCAR-3 [8]): 85%
growth at 100 µM (HOP-62): -3%
growth at 100 µM (HT-29 [9]): -70%
growth at 100 µM (UACC-257): -92%
growth at 100 µM (786-0): -58%
growth at 100 µM (T47D): -39%

Reference: ChEMBL document CHEMBL4308841, “Synthesis, in vitro antiproliferative activity, and kinase inhibitory effects of pyrazole-containing diarylureas and diarylamides” (Eur J Med Chem, 2018)
